# Source: EP0221541A2, “Quinolonecarboxylic acid derivatives and their preparation” (KYORIN PHARMACEUTICAL CO., LTD., priority 1985, dated 1987)
# Counter-ions that a name gives are not always drawn. Like-named read-outs stand apart in the source and are kept apart here.
# Tests used:
# Assay type in all cases: cell-based
# [1] = tested on: Staphylococcus aureus 209 P; assay: MIC, antibacterial spectrum (aerobic bacteria); settings: Staphylococcus aureus 209 P, Gram +, 10^6 cells/ml, aerobic; read-out: MIC
# [2] = tested on: Acinetobacter anitratus IID 876; assay: MIC, antibacterial spectrum (aerobic bacteria); settings: Acinetobacter calcoaceticus, IID876; Acinetobacter anitratus IID 876, Gram -, 10^6 cells/ml, aerobic; read-out: MIC
# [3] = tested on: Klebsiella pneumoniae KY(GN)6445; assay: MIC, antibacterial spectrum (aerobic bacteria); settings: Klebsiella pneumoniae KY(GN)6445, Gram -, 10^6 cells/ml, aerobic; read-out: MIC
# B. fragilis 0558 = assay: MIC, antibacterial spectrum (anaerobic bacteria); settings: Bacteroides fragilis; B. fragilis 0558, Gram -, 10^6 cells/ml, anaerobic; read-out: MIC
# P. mirabilis IID 994 = assay: MIC, antibacterial spectrum (aerobic bacteria); settings: Proteus mirabilis, IID994; P. mirabilis IID 994, Gram -, 10^6 cells/ml, aerobic; read-out: MIC
# S. marcescens GN 7577 = assay: MIC, antibacterial spectrum (aerobic bacteria); settings: Serratia marcescens, GN7577; S. marcescens GN 7577, Gram -, 10^6 cells/ml, aerobic; read-out: MIC
# [4] = tested on: Bacillus subtilis PCI 219; assay: MIC, antibacterial spectrum (aerobic bacteria); settings: PCI219; Bacillus subtilis PCI 219, Gram +, 10^6 cells/ml, aerobic; read-out: MIC
# E. coli ATCC 10536 = assay: MIC, antibacterial spectrum (aerobic bacteria); settings: Escherichia coli, ATCC10536; E. coli ATCC 10536, Gram -, 10^6 cells/ml, aerobic; read-out: MIC
# [5] = tested on: Escherichia coli NIHJ JC-2; assay: MIC, antibacterial spectrum (aerobic bacteria); settings: NIHJJC2, Escherichia coli NIHJ JC-2, Gram -, 10^6 cells/ml
# [6] = tested on: Peptostreptococcus anaerobius KYA 27337; assay: MIC, antibacterial spectrum (anaerobic bacteria); settings: KYA27337; Peptostreptococcus anaerobius KYA 27337, Gram +, 10^6 cells/ml, anaerobic; read-out: MIC
# [7] = tested on: Bacteroides fragilis GM 7000; assay: MIC, antibacterial spectrum (anaerobic bacteria); settings: GM7000; Bacteroides fragilis GM 7000, Gram -, 10^6 cells/ml, anaerobic; read-out: MIC
# [8] = tested on: Serratia marcescens IID 618; assay: MIC, antibacterial spectrum (aerobic bacteria); settings: IID618
# [9] = tested on: Clostridium difficile I-E; assay: MIC, antibacterial spectrum (anaerobic bacteria); settings: Clostridioides difficile, Gram +, 10^6 cells/ml
# E. faecalis IID 682 = assay: MIC, antibacterial spectrum (aerobic bacteria); settings: Enterococcus faecalis, IID682; E. faecalis IID 682, Gram +, 10^6 cells/ml, aerobic; read-out: MIC
# P. cepacia KY 84 = assay: MIC, antibacterial spectrum (aerobic bacteria); settings: Burkholderia cepacia, KY84, P. cepacia KY 84, Gram -, 10^6 cells/ml
# [10] = tested on: Salmonella enteritidis IID 604; assay: MIC, antibacterial spectrum (aerobic bacteria); settings: Salmonella enterica; Salmonella enteritidis IID 604, Gram -, 10^6 cells/ml, aerobic; read-out: MIC
# P. maltophilia GIFU 2491 = assay: MIC, antibacterial spectrum (aerobic bacteria); settings: Stenotrophomonas maltophilia, GIFU2491; P. maltophilia GIFU 2491, Gram -, 10^6 cells/ml, aerobic; read-out: MIC
# P. cepacia GIFU 518 = assay: MIC, antibacterial spectrum (aerobic bacteria); settings: Burkholderia cepacia, GIFU518; P. cepacia GIFU 518, Gram -, 10^6 cells/ml, aerobic; read-out: MIC
# B. distasonis 8503 = assay: MIC, antibacterial spectrum (anaerobic bacteria); settings: Parabacteroides distasonis; B. distasonis 8503, Gram -, 10^6 cells/ml, anaerobic; read-out: MIC
# [11] = Serratia marcescens IID 618, Gram -, 10^6 cells/ml, aerobic, read-out: MIC
SMILES,MIC [1],MIC [2],MIC [3],MIC (B. fragilis 0558),MIC (P. mirabilis IID 994),MIC (S. marcescens GN 7577),MIC [4],MIC (E. coli ATCC 10536),MIC [5],MIC [6],MIC [7],"MIC [8, 11]",MIC [9],MIC (E. faecalis IID 682),MIC (P. cepacia KY 84),MIC [10],MIC ([8]; Serratia marcescens),MIC (P. maltophilia GIFU 2491),MIC (P. cepacia GIFU 518),MIC (B. distasonis 8503)
"O=C(O)c1cn(C2CC2)c2c(F)c(N3CCC(CNCCO)C3)c(F)cc2c1=O (stereo not shown) [Exp. 1, 1-Cyclopropyl-6,8-difluoro-1,4-dihydro-7-[3-(2-hydroxyethylaminomethyl)-1-pyrrolidinyl]-4-oxo-3-quinolinecarboxylic acid]",0.05 µg/mL,0.2 µg/mL,0.05 µg/mL,0.78 µg/mL,0.05 µg/mL,3.13 µg/mL,0.0125 µg/mL,0.05 µg/mL,0.025 µg/mL,≤ 0.05 µg/mL,1.56 µg/mL,0.39 µg/mL,0.78 µg/mL,0.1 µg/mL,3.13 µg/mL,0.1 µg/mL,,,,
"O=C(O)c1cn(C2CC2)c2cc(N3CCC(CNCCO)C3)c(F)cc2c1=O (stereo not drawn) [Exp. 2, l-Cyclopropyl-6-fluoro-l,4-dihydro-7-[3-(2-hydroxyethylaminomethyl)-l-pyrrolidinyl]-4-oxo-3-quinolinecarboxylic acid hydrochloride]",0.2 µg/mL,3.13 µg/mL,0.39 µg/mL,50 µg/mL,0.39 µg/mL,25 µg/mL,≤ 0.05 µg/mL,0.1 µg/mL,0.1 µg/mL,0.78 µg/mL,100 µg/mL,,25 µg/mL,0.78 µg/mL,,0.39 µg/mL,1.56 µg/mL,,,
"O=C(O)c1cn(C2CC2)c2c(Cl)c(N3CCC(CNCCO)C3)c(F)cc2c1=O (stereo not shown) [Exp. 3, 8-Chloro-1-cyclopropyl-6-fluoro-1,4-dihydro-7-(3-(2-hydroxyethylaminomethyl)-1-pyrrolidinyl]-4-oxo-3-quinolinecarboxylic acid]",0.0125 µg/mL,0.1 µg/mL,0.05 µg/mL,0.2 µg/mL,0.05 µg/mL,1.56 µg/mL,0.0125 µg/mL,0.025 µg/mL,0.0125 µg/mL,0.025 µg/mL,0.39 µg/mL,0.2 µg/mL,0.2 µg/mL,0.1 µg/mL,,0.1 µg/mL,,0.2 µg/mL,1.56 µg/mL,0.78 µg/mL
